Assay results taken from PMC3295651, “Delineation of the Pasteurellaceae-specific GbpA-family of glutathione-binding proteins” (BMC Biochemistry, 2011).

How the values were obtained:
Assay in all cases: Thermofluor thermal shift (Sypro orange)
Type in all cases: binding
hbpA = target: T1, hbpA (Actinobacillus pleuropneumoniae, UniProt A3N3U8, C22M); details: read-out: GbpAAp
T1 construct: soluble non-lipidated form; mature start at position 22; C-terminal his-tag; E. coli, pET20b
Text: Thermofluor thermal shift (Sypro orange) on GbpAAp

GbpAHi = target: T2, GbpAHi (Haemophilus influenzae, UniProt P33950)
T2 construct: gene hbpA; soluble non-lipidated form; leader replaced by PelB; his-tag
Text: Thermofluor thermal shift (Sypro orange) on GbpAHi

GbpAHp = target: T3, GbpAHp (Glaesserella parasuis, UniProt B8F653)
T3 construct: gene hbpA; non-lipoprotein; leader replaced by PelB; his-tag
T3 sequence (B8F653 23-531): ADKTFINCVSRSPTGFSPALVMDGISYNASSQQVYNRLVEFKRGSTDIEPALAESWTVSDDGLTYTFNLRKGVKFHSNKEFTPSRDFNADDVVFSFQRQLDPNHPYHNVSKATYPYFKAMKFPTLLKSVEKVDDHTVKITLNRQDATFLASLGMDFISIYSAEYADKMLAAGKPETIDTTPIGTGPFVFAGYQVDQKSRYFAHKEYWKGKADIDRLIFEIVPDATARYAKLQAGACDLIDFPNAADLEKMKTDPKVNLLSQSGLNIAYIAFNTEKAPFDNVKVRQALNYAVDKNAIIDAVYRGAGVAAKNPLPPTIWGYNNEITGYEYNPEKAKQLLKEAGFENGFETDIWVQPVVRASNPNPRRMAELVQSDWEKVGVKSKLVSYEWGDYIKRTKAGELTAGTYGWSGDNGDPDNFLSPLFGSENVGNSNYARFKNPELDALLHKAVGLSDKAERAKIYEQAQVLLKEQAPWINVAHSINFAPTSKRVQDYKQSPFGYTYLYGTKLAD
Text: Thermofluor thermal shift (Sypro orange) on GbpAHp

T2 sequence (P33950 19-547): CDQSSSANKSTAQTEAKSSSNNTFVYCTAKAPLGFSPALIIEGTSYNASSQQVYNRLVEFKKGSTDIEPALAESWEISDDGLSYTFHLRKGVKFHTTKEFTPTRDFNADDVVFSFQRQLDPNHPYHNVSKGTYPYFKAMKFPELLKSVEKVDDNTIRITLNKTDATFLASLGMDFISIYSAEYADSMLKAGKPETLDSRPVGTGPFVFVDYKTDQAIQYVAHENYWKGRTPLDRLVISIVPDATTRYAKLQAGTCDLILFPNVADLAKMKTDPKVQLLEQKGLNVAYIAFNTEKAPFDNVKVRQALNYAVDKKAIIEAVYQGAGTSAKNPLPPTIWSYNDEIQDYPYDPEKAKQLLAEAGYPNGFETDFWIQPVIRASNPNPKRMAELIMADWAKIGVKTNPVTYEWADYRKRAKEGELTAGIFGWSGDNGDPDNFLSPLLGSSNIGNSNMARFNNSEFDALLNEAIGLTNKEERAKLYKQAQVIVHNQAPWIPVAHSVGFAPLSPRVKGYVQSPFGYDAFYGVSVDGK
T1 sequence (A3N3U8 22-545 C22M): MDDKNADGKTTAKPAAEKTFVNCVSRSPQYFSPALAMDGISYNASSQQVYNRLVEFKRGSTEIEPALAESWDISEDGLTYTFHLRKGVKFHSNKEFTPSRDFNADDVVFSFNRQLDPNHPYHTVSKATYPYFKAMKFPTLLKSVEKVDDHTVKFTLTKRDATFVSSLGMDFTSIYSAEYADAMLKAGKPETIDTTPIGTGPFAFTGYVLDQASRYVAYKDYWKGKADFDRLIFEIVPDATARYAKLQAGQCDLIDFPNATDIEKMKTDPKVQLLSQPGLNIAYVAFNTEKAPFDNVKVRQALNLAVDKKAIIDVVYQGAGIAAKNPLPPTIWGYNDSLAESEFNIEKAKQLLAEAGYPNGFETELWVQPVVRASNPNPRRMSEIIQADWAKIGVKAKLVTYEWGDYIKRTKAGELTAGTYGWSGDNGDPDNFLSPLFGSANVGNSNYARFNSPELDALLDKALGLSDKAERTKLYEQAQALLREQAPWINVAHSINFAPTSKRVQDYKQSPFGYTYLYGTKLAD

Structure (SMILES)	ΔTm at 1000 µM (hbpA)	ΔTm at 1000 µM (GbpAHi)	ΔTm at 1000 µM (GbpAHp)
N[C@@H](CCC(=O)N[C@@H](CSSC[C@H](N)C(=O)O)C(=O)NCC(=O)O)C(=O)O [glutathione cysteine disulfide]	6 °C	10 °C	7 °C
N[C@@H](CCC(=O)N[C@@H](CS)C(=O)NCC(=O)O)C(=O)O [GSH]		12.5 °C	
CSC[C@H](NC(=O)CC[C@H](N)C(=O)O)C(=O)NCC(=O)O [S-methylglutathione]		10.5 °C	
N[C@@H](CCC(=O)N[C@@H](CSN=O)C(=O)NCC(=O)O)C(=O)O [S-nitrosoglutathione]	6.5 °C	7 °C	9.5 °C
